Experimental data as given in ChEMBL document CHEMBL4483862, “Open-source discovery of chemical leads for next-generation chemoprotective antimalarials” (2018).
pIC50: −log10 of the molar value.

Test system: Plasmodium berghei
Assay: Luciferase/luciferin-expressing antifolate-resistant parasites were used to infect a culture of HepG2 cells that were pre-incubated with compounds. Infected hepatocytes emit light due to the luciferase reaction. Assay results are presented as the percent inhibition of light emission compared to control. […]
Type: functional
Conditions: sporozoite; for IC90: read-out: LUCIFERASE INFECTION ASSAY - IC90
[1] = read-out: LUCIFERASE INFECTION ASSAY - IC50

Structure (SMILES) | IC90 [µM] | also measured
CC1=NN(c2ccccc2)C(=O)/C(=C\NC(=O)c2cccc([N+](=O)[O-])c2)N1 | 8.07 | pIC50 (HEPG2TOX_HILL_SLOPE 1.78, HEPG2TOX_R_SQUARED 0.224, PBLUC_HILL_SLOPE 3.78, PBLUC_R_SQUARED 0.384, read-out: LUCIFERASE INFECTION ASSAY - IC50): 5.35
Cc1ccc(-c2cs/c(=N\c3cccnc3)n2CCCn2ccnc2)cc1C | > 10 | pIC50 (HEPG2TOX_HILL_SLOPE 0.267, HEPG2TOX_R_SQUARED 0.885, PBLUC_HILL_SLOPE 2.25, PBLUC_R_SQUARED 0.462, read-out: LUCIFERASE INFECTION ASSAY - IC50): 5.26
CCn1c(-c2ccccc2)c(C(=O)COC(=O)/C=C/c2ccco2)c2ccccc21 | > 10 | pIC50 (HEPG2TOX_HILL_SLOPE 1.75, HEPG2TOX_R_SQUARED 0.877, PBLUC_HILL_SLOPE 15.9, PBLUC_R_SQUARED 0.384, read-out: LUCIFERASE INFECTION ASSAY - IC50): 5.02
CC1=C(C(=O)OC2CCCCC2)C(c2ccccc2Br)CC(=O)N1 (configuration not stated) | > 8.41 | pIC50 (PBLUC_HILL_SLOPE 15.2, PBLUC_R_SQUARED 0.697, read-out: LUCIFERASE INFECTION ASSAY - IC50): 5.12
COc1ccc(C(=O)/C=C/c2cccc(C#N)c2)cc1CN1CCCC1 | > 10 | pIC50 (HEPG2TOX_HILL_SLOPE 11.5, HEPG2TOX_R_SQUARED 0.623, read-out: LUCIFERASE INFECTION ASSAY - IC50): < 5.00
CC(C)n1ncc2c(C(=O)N3CCN(CC(=O)N4CCCC4)CC3)cc(-c3ccccc3)nc21 | 5.42 | pIC50 (PBLUC_HILL_SLOPE 8.22, PBLUC_R_SQUARED 0.426, read-out: LUCIFERASE INFECTION ASSAY - IC50): 5.38
CNc1ccccc1C(C)(C)c1cc(-c2ccc(Cl)cc2)no1 | > 10 | pIC50 [1]: 5.32
Cc1cnc2c(S(=O)(=O)NCc3csc(-c4ccccc4)n3)cccc2c1 | > 10 | pIC50 [1]: < 5.00
Cc1nc2ccc(NC(=O)c3ccc4[nH]c(C)c(C)c4c3)cc2s1 | > 9.84 | pIC50 (PBLUC_HILL_SLOPE 1.58, PBLUC_R_SQUARED 0.399, read-out: LUCIFERASE INFECTION ASSAY - IC50): < 5.01
CCN1CCc2nc(NC(=O)c3ccccc3Nc3ccc(F)cc3)sc2C1 | 8.04 | pIC50 (PBLUC_HILL_SLOPE 2.71, PBLUC_R_SQUARED 0.663, read-out: LUCIFERASE INFECTION ASSAY - IC50): 5.45
CC1Sc2ccc(C(=O)Nc3ccnn3Cc3cccc(Cl)c3Cl)cc2NC1=O (configuration not stated) | > 10 | pIC50 [1]: < 5.00
CCc1c(C(=O)NCC2CCS(=O)(=O)C2)cnn1-c1ccc(C)cc1 (configuration not stated) | > 10 | pIC50 (PBLUC_HILL_SLOPE 12.8, PBLUC_R_SQUARED 0.197, read-out: LUCIFERASE INFECTION ASSAY - IC50): < 5.00
COc1cccc(-c2nc3ccc(NC(=O)Nc4ccc5c(c4)OCO5)cn3n2)c1 | > 10 | pIC50 (PBLUC_HILL_SLOPE 3.78, PBLUC_R_SQUARED 0.75, read-out: LUCIFERASE INFECTION ASSAY - IC50): 5.15
CN1/C(=C\C=N\NC(=O)c2cnccn2)C(C)(C)c2ccccc21 | > 10 | pIC50 [1]: < 5.00
Cc1cc(C)n(-c2ccc(S(N)(=O)=O)cc2)n1 | > 13.1 | pIC50 (FFLUC_HILL_SLOPE 0.55, FFLUC_R_SQUARED 0.0304, read-out: LUCIFERASE INFECTION ASSAY - IC50): < 4.88
O=C(OCc1cc(=O)oc2ccc3ccccc3c12)c1ccccc1-c1ccc(C(F)(F)F)cc1 | > 10 | pIC50 (FFLUC_HILL_SLOPE 17.5, FFLUC_R_SQUARED 0.62, read-out: LUCIFERASE INFECTION ASSAY - IC50): < 5.00
NC(Cc1ccc(F)cc1)c1csc(NC(=O)Nc2ccccc2Oc2ccccc2)n1 (configuration not stated) | > 7.36 | pIC50 [1]: < 5.13
Cc1ccc(Cn2c(NCc3cccs3)nc3ccccc32)cc1 | > 9.9 | pIC50 (PBLUC_HILL_SLOPE 9.45, PBLUC_R_SQUARED 0.348, read-out: LUCIFERASE INFECTION ASSAY - IC50): 5.09
Cc1nnc(Oc2ccc(C#N)cc2Cl)c2ccccc12 | > 10 | pIC50 (HEPG2TOX_HILL_SLOPE 10.4, HEPG2TOX_R_SQUARED 0.426, read-out: LUCIFERASE INFECTION ASSAY - IC50): < 5.00
CC(C)(C)c1cc(NS(=O)(=O)c2cc(C(F)(F)F)cc(C(F)(F)F)c2)c(C#N)s1 | 2.55 | pIC50 (HEPG2TOX_HILL_SLOPE 3.04, HEPG2TOX_R_SQUARED 0.973, PBLUC_HILL_SLOPE 26.7, PBLUC_R_SQUARED 0.729, read-out: LUCIFERASE INFECTION ASSAY - IC50): 5.63
O=C(Nc1nc2ccccn2c1C(=O)NC1CCCC1)c1ccccc1F | 4.76 | pIC50 (HEPG2TOX_HILL_SLOPE 0.364, HEPG2TOX_R_SQUARED 0.251, PBLUC_HILL_SLOPE 7.71, PBLUC_R_SQUARED 0.78, read-out: LUCIFERASE INFECTION ASSAY - IC50): 5.45

Structure (SMILES) | IC90 [µM] | also measured
COc1cc(-c2nc3ccc(NC(=O)Nc4ccc(OC(F)(F)F)cc4)cn3n2)cc(OC)c1OC | 4.73 | pIC50 (HEPG2TOX_HILL_SLOPE 11.1, HEPG2TOX_R_SQUARED 0.679, PBLUC_HILL_SLOPE 2.84, PBLUC_R_SQUARED 0.644, read-out: LUCIFERASE INFECTION ASSAY - IC50): 5.66
Cc1ccc(N2C(=O)/C(=C\c3ccc4c(c3)OCO4)N=C2SCC(=O)NCC2CCCO2)cc1 (configuration not stated) | > 10 | pIC50 [1]: < 5.00
Cc1cc(C2=NNC(=NC3CC3)SC2)c(C)n1-c1ccccn1 | 1.61 | pIC50 (FFLUC_HILL_SLOPE 1.22, FFLUC_R_SQUARED 0.875, PBLUC_HILL_SLOPE 1.09, PBLUC_R_SQUARED 0.799, read-out: LUCIFERASE INFECTION ASSAY - IC50): 6.67
CC(C)Nc1nc(NCC2CCCCC2)c2sccc2n1 | > 10.8 | pIC50 (FFLUC_HILL_SLOPE 8.35, FFLUC_R_SQUARED 0.136, PBLUC_HILL_SLOPE 0.461, PBLUC_R_SQUARED 0.456, read-out: LUCIFERASE INFECTION ASSAY - IC50): 5.74
CCN(CC)Cc1ccccc1CNC(=O)c1cccc2ccccc12 | > 10 | pIC50 [1]: < 5.00
C=C(C)CN(CC)c1nc(N)c(C#N)c(C(C#N)Cc2ccc(C)cc2)c1C#N (configuration not stated) | 8.18 | pIC50 (HEPG2TOX_HILL_SLOPE 73.4, HEPG2TOX_R_SQUARED 0.557, PBLUC_HILL_SLOPE 3.82, PBLUC_R_SQUARED 0.311, read-out: LUCIFERASE INFECTION ASSAY - IC50): 5.34
COc1ccc(CNc2nc3cnc(Nc4ccc(F)c(Cl)c4)cc3n2C)cc1OC | > 10 | pIC50 [1]: < 5.00
O=C(CN(Cc1c(F)cccc1Cl)C1CC1)Nc1ccccc1Cl | > 10 | pIC50 (FFLUC_HILL_SLOPE 11.2, FFLUC_R_SQUARED 0.995, read-out: LUCIFERASE INFECTION ASSAY - IC50): < 5.00
COC(=O)C1=C(Sc2ccc(Cl)cc2)CSC1 | > 11.5 | pIC50 (PBLUC_HILL_SLOPE 0.458, PBLUC_R_SQUARED 0.122, read-out: LUCIFERASE INFECTION ASSAY - IC50): < 4.94
C(=C(c1nc2ccccc2s1)c1nc2ccccc2s1)C1=C(c2ccccc2)Oc2ccccc2O1 | > 10 | pIC50 (FFLUC_HILL_SLOPE 7.98, FFLUC_R_SQUARED 0.561, PBLUC_HILL_SLOPE 1.21, PBLUC_R_SQUARED 0.509, read-out: LUCIFERASE INFECTION ASSAY - IC50): 5.03
COC(=O)c1cc(OC)c(OC)cc1NS(=O)(=O)c1ccc(Cl)cc1 | 2.91 | pIC50 [1]: 5.55
COc1cccc(/N=C2\SCC(C)(C)N2C(=O)c2ccccc2OCc2ccccc2C)c1 | > 10 | pIC50 (HEPG2TOX_HILL_SLOPE 1.35, HEPG2TOX_R_SQUARED 0.857, read-out: LUCIFERASE INFECTION ASSAY - IC50): < 5.00
CC(C)c1ccc(N(C(=O)CC(c2ccccc2)c2ccccc2)c2nc3ccccc3s2)cc1 | > 10 | pIC50 [1]: < 5.00
CCn1nnc2cc(C(=O)NC3CCc4nc(-c5ccccc5)ncc4C3)ccc21 (configuration not stated) | > 10 | pIC50 (HEPG2TOX_HILL_SLOPE 0.553, HEPG2TOX_R_SQUARED 0.534, PBLUC_HILL_SLOPE 1.69, PBLUC_R_SQUARED 0.311, read-out: LUCIFERASE INFECTION ASSAY - IC50): 5.33
CCOC(=O)C(c1ccc(Cl)cc1)N1CCN(C(=O)/C=C/c2ccc(OC)c(OC)c2)CC1 (configuration not stated) | 3.62 | pIC50 (PBLUC_HILL_SLOPE 18.4, PBLUC_R_SQUARED 0.744, read-out: LUCIFERASE INFECTION ASSAY - IC50): 5.49
CCOc1cc(CNCc2nc3ccccc3[nH]2)ccc1OCc1cccs1 | > 10 | pIC50 (HEPG2TOX_HILL_SLOPE 15, HEPG2TOX_R_SQUARED 0.655, PBLUC_HILL_SLOPE 1.7, PBLUC_R_SQUARED 0.452, read-out: LUCIFERASE INFECTION ASSAY - IC50): 5.38
COc1ccc(CN=C2NN=C(c3cc4ccccc4o3)CS2)cc1 | 0.318 | pIC50 (HEPG2TOX_HILL_SLOPE 1.33, HEPG2TOX_R_SQUARED 0.982, PBLUC_HILL_SLOPE 1.63, PBLUC_R_SQUARED 0.322, read-out: LUCIFERASE INFECTION ASSAY - IC50): 7.08
c1ccc(-c2cc(N3CCCCC3)c3ccccc3n2)nc1 | > 11.4 | pIC50 (PBLUC_HILL_SLOPE 9.83, PBLUC_R_SQUARED 0.0291, read-out: LUCIFERASE INFECTION ASSAY - IC50): 4.99
COc1ccc(-c2cnc3cnc(-c4cnn(C)c4)cn23)cc1 | > 10.8 | pIC50 (HEPG2TOX_HILL_SLOPE 0.995, HEPG2TOX_R_SQUARED 0.66, PBLUC_HILL_SLOPE 1.64, PBLUC_R_SQUARED 0.772, read-out: LUCIFERASE INFECTION ASSAY - IC50): 5.52
O=C(Nc1ccc(CN2CCCC2)cc1)c1ccc(-n2cnc3ccccc32)cc1 | > 10 | pIC50 (HEPG2TOX_HILL_SLOPE 1.93, HEPG2TOX_R_SQUARED 0.859, PBLUC_HILL_SLOPE 3.59, PBLUC_R_SQUARED 0.621, read-out: LUCIFERASE INFECTION ASSAY - IC50): 5.24
